These results are taken from PubChem BioAssay AID212 (DTP/NCI, 2004).

This experiment concerns BDF1 mice, colon carcinoma 38 sc, T/C %. Put plainly: NCI In Vivo Anticancer Drug Screen. Data for tumor model Colon Carcinoma 38 (subcutaneous) in B6D2F1 (BDF1) mice. The note with it: endpoint: median tumor weight (est.), higher = larger tumour. Put shortly: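 T/C readout: treated group (T) measurement over vehicle control group (C) measurement. Endpoint is survival or tumor size in mice bearing a transplanted tumor.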

[1] abbreviates: dose: 25.0 mg/kg/injection, schedule: Q07DX002 (ip), vehicle: Klucel (hydroxypropylcellulose) (HPC).
The mark [2] stands for this setting: dose: 50.0 mg/kg/injection, schedule: Q07DX002 (ip), vehicle: Klucel (hydroxypropylcellulose) (HPC).
[3] abbreviates: dose: 25.0 mg/kg/injection, schedule: Q07DX002 (ip), vehicle: saline with Tween-80.
The mark [4] stands for this setting: dose: 50.0 mg/kg/injection, schedule: Q07DX002 (ip), vehicle: saline with Tween-80.
Where [5] appears, read: dose: 100.0 mg/kg/injection, schedule: Q07DX002 (ip), vehicle: saline with Tween-80.
Setting [6] is: dose: 200.0 mg/kg/injection, schedule: Q07DX002 (ip), vehicle: saline with Tween-80.
Setting [7] is: dose: 400.0 mg/kg/injection, schedule: Q07DX002 (ip), vehicle: saline with Tween-80.

Several values for one entry are separate records, joined by “and”; a condition that tells them apart may be missing. Equal entries are not always repeated. Records with an inconclusive call do not appear.

As to `C/C(=N\N=C(/[Se])N1CC2CCC(CC2)C1)c1ccccn1`, the T/C is, setting by setting: (dose: 3.0 mg/kg/injection, schedule: Q07DX002 (ip), vehicle: Klucel (hydroxypropylcellulose) (HPC)) 111 % of control; (dose: 6.0 mg/kg/injection, schedule: Q07DX002 (ip), vehicle: Klucel (hydroxypropylcellulose) (HPC)) 67 % of control; (dose: 12.0 mg/kg/injection, schedule: Q07DX002 (ip), vehicle: Klucel (hydroxypropylcellulose) (HPC)) 91 % of control; under setting [1], 106 % of control; under setting [2], 45 % of control.
For the compound `Cc1cn(C2CC3[O][Sn]([c]4ccccc4)([c]4ccccc4)[O]CC3O2)c(=O)[nH]c1=O` (stereo not given), the T/C was 110 % of control (dose: 12.5 mg/kg/injection, schedule: Q07DX002 (ip), vehicle: saline); 100 % of control (dose: 25.0 mg/kg/injection, schedule: Q07DX002 (ip), vehicle: saline); 95 % of control (dose: 50.0 mg/kg/injection, schedule: Q07DX002 (ip), vehicle: saline); 110 % of control (dose: 100.0 mg/kg/injection, schedule: Q07DX002 (ip), vehicle: saline); 99 % of control (dose: 200.0 mg/kg/injection, schedule: Q07DX002 (ip), vehicle: saline).
Take `c1ccc2c(NCCCCCCNc3c4ccccc4nc4ccccc34)c3ccccc3nc2c1`: the T/C runs as follows: (dose: 1.25 mg/kg/injection, schedule: Q07DX002 (ip), vehicle: Klucel (hydroxypropylcellulose) (HPC)) 109 % of control and 95 % of control; (dose: 2.5 mg/kg/injection, schedule: Q07DX002 (ip), vehicle: Klucel (hydroxypropylcellulose) (HPC)) 122 % of control and 97 % of control; (dose: 5.0 mg/kg/injection, schedule: Q07DX002 (ip), vehicle: Klucel (hydroxypropylcellulose) (HPC)) 70 % of control; (dose: 20.0 mg/kg/injection, schedule: Q07DX002 (ip), vehicle: Klucel (hydroxypropylcellulose) (HPC)) 70 % of control and 76 % of control; (dose: 40.0 mg/kg/injection, schedule: Q07DX002 (ip), vehicle: Klucel (hydroxypropylcellulose) (HPC)) 72 % of control.
For `CN(Cc1cnc2nc(N)nc(N)c2n1)c1c(Cl)cc(C(=O)NC(CCC(=O)O)C(=O)O)cc1Cl` (stereo not given), the T/C by setting is: (dose: 3.12 mg/kg/injection, schedule: Q07DX003 (ip), vehicle: Klucel (hydroxypropylcellulose) (HPC)) 155 % of control; (dose: 6.25 mg/kg/injection, schedule: Q07DX003 (ip), vehicle: Klucel (hydroxypropylcellulose) (HPC)) 117 % of control; (dose: 12.5 mg/kg/injection, schedule: Q07DX003 (ip), vehicle: suspension in saline) 87 % of control; (dose: 25.0 mg/kg/injection, schedule: Q07DX003 (ip), vehicle: suspension in saline) 124 % of control; (dose: 50.0 mg/kg/injection, schedule: Q07DX003 (ip), vehicle: Klucel (hydroxypropylcellulose) (HPC)) 72 % of control; (dose: 50.0 mg/kg/injection, schedule: Q07DX003 (ip), vehicle: suspension in saline) 77 % of control. Besides, the T/C is 90 % of control (dose: 100.0 mg/kg/injection, schedule: Q07DX003 (ip), vehicle: Klucel (hydroxypropylcellulose) (HPC)); 86 % of control (dose: 100.0 mg/kg/injection, schedule: Q07DX003 (ip), vehicle: suspension in saline); 102 % of control (dose: 200.0 mg/kg/injection, schedule: Q07DX003 (ip), vehicle: Klucel (hydroxypropylcellulose) (HPC)); 81 % of control (dose: 200.0 mg/kg/injection, schedule: Q07DX003 (ip), vehicle: suspension in saline); 62 % of control (dose: 400.0 mg/kg/injection, schedule: Q07DX003 (ip), vehicle: Klucel (hydroxypropylcellulose) (HPC)); 101 % of control (dose: 400.0 mg/kg/injection, schedule: Q07DX003 (ip), vehicle: suspension in saline).
For `O=C(NO)c1cc(O)c(O)c(O)c1`, the T/C runs as follows: (dose: 50.0 mg/kg/injection, schedule: Q07DX002 (ip), vehicle: water) 80 % of control; (dose: 100.0 mg/kg/injection, schedule: Q07DX002 (ip), vehicle: water) 70 % of control; (dose: 200.0 mg/kg/injection, schedule: Q07DX002 (ip), vehicle: water) 68 % of control; (dose: 400.0 mg/kg/injection, schedule: Q07DX002 (ip), vehicle: water) 83 % of control; (dose: 800.0 mg/kg/injection, schedule: Q07DX002 (ip), vehicle: water) 40 % of control.
`COc1cc2cc[n+](C)c(Cc3ccccc3)c2cc1OC`: the T/C is 113 % of control (dose: 12.5 mg/kg/injection, schedule: Q07DX003 (ip), vehicle: saline); 84 % of control (dose: 25.0 mg/kg/injection, schedule: Q07DX003 (ip), vehicle: saline); 80 % of control (dose: 50.0 mg/kg/injection, schedule: Q07DX003 (ip), vehicle: saline).
Take `O=C(Nc1cccc2c(OC(=O)C(Cl)Cl)c(N=Nc3ccc(S(=O)(=O)Nc4nccs4)cc3)cc(N=Nc3ccc(S(=O)(=O)Nc4nccs4)cc3)c12)C(Cl)Cl` (tested in a mixture with another compound): the T/C (dose: 6.25 mg/kg/injection, schedule: Q07DX002 (ip), vehicle: saline with Tween-80) is 91 % of control; the T/C (dose: 12.5 mg/kg/injection, schedule: Q07DX002 (ip), vehicle: saline with Tween-80) is 100 % of control; the T/C under setting [3] was 77 % of control; the T/C under setting [4] is 92 % of control; the T/C under setting [5] was 88 % of control.
With `C(C#CCN1CCOCC1)#CCN1CCOCC1`, the T/C reads like this: under setting [1], 80 % of control; under setting [3], 166 % of control; under setting [2], 60 % of control; under setting [4], 213 % of control; (dose: 100.0 mg/kg/injection, schedule: Q07DX002 (ip), vehicle: Klucel (hydroxypropylcellulose) (HPC)) 65 % of control; under setting [5], 177 % of control. The T/C reads like this: (dose: 200.0 mg/kg/injection, schedule: Q07DX002 (ip), vehicle: Klucel (hydroxypropylcellulose) (HPC)) 49 % of control; under setting [6], 296 % of control; (dose: 400.0 mg/kg/injection, schedule: Q07DX002 (ip), vehicle: Klucel (hydroxypropylcellulose) (HPC)) 94 % of control; under setting [7], 285 % of control; (dose: 800.0 mg/kg/injection, schedule: Q07DX002 (ip), vehicle: Klucel (hydroxypropylcellulose) (HPC)) 60 % of control; (dose: 800.0 mg/kg/injection, schedule: Q07DX002 (ip), vehicle: saline with Tween-80) 262 % of control.
In the case of `COc1cccc2c1C(=O)c1c(O)c3c(c(O)c1C2=O)C[C@@](O)(/C(C)=N/NC(=O)c1ccccc1)C[C@@H]3OC1CC(N)C(O)C(C)O1` (stereo not given in full), the T/C (dose: 2.0 mg/kg/injection, schedule: Q07DX002 (ip), vehicle: water) was 100 % of control; the T/C (dose: 4.0 mg/kg/injection, schedule: Q07DX002 (ip), vehicle: water) is 107 % of control; the T/C (dose: 8.0 mg/kg/injection, schedule: Q07DX002 (ip), vehicle: water) is 102 % of control; the T/C (dose: 16.0 mg/kg/injection, schedule: Q07DX002 (ip), vehicle: water) was 16 % of control.
Take `CC(=O)Oc1[nH]c(=O)c2cccc3c2c1CCC3`: the T/C under setting [4] is 161 % of control; the T/C under setting [6] is 118 % of control; the T/C under setting [7] was 122 % of control; the T/C (dose: 1600.0 mg/kg/injection, schedule: Q07DX002 (ip), vehicle: saline with Tween-80) is 118 % of control.
